In PubChem BioAssay AID2820 (Sanford-Burnham Center for Chemical Genomics, 2010):

Molecular target: G-protein coupled receptor 55 (Homo sapiens) (UniProt Q9Y2T6)
Assay: GPR55 antagonist potency of analogs, SAR follow-up, imaging, U2OS, beta-arrestin-GFP, LPI agonist, set 2 (AID 2820)
Settings: LPI antagonism

Sequence of G-protein coupled receptor 55 (Homo sapiens) (Q9Y2T6 whole entry, looked up): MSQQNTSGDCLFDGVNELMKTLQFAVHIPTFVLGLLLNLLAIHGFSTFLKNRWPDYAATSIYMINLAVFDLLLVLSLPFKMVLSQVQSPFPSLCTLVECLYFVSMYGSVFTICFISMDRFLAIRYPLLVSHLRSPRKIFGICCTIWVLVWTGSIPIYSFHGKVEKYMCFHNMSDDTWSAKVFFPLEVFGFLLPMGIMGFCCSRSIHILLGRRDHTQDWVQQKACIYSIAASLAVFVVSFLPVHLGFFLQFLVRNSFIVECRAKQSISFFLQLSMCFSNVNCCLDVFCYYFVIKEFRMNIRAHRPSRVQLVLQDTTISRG

IC50	SMILES
865 nM	O=C(c1ccco1)N1CCN(c2nc(C3CC3)nc3sc4c(c23)CCCC4)CC1
1080 nM	Cc1ccc(C2(C(=O)N3CCC(n4nc(-c5ccccc5)oc4=O)CC3)CC2)cc1
1090 nM	Cc1cc(OCC(=O)Nc2ccc(S(=O)(=O)NC3=NCCCCC3)cc2)c(C(C)C)cc1Cl

SMILES	IC50
Cc1nc(N2CCN(C(=O)c3ccco3)CC2)c2c3c(sc2n1)CCCC3	702 nM
